Measurements from paper PMC8996404, “The pharmacokinetics of buserelin after intramuscular administration in pigs and cows” (BMC Veterinary Research, 2022).
Where two headings read alike, the source gives them in different places.

What was measured:
[1] = Stability of buserelin in cow plasma (autosampler, benchtop, freeze–thaw); format: in vitro ADME; conditions: UPLC-MS/MS
Experimental: (§1) Selectivity has been assessed by comparing the chromatograms of blank plasma samples and those of corresponding items with buserelin to exclude the interfering peaks. The calibration curve was established by spiking the blank matrix with known concentration of buserelin. Limit of detection (LOD) and Limit of quantification (LOQ) were determined as the concentrations of buserelin which produced signal/ noise ratio of 3 and 10, respectively. For linearity of this method, calibration curves were generated by least squares regression method with a weighting factor and regression coefficient. Recovery was determined by comparing the analytical results of the extracted quality control (QC) samples with pure standard solution. The accuracy was assessed as the percentage of the measured concentration to the nominal standard concentration. The precision was expressed by coefficient of variation. Stability was assessed by autosampler, benchtop, freeze–thaw, and stock solution test. The matrix effect was obtained with the area of post-extraction blank plasma samples added with buserelin at two levels with the equivalent concentration standard solutions that added with initiate mobile phase.

[2] = cited from earlier work
Text: After being approved by the European Medicines Agency (EMA) in 1995 [1], there are some pharmacokinetic studies of buserelin been reported in humans and rats following subcutaneous (s.c.), intranasal (i.n.), or intravenous (i.v.) routes. […] High plasma concentration, high bonding rate, means more drugs cannot across the membrane and barrier. Therefore, binding changes can affect the distribution of drugs. Because protein binding of buserelin is about 15% [2], it is proportional to the body volume and body weight and animals using in this study had larger volume of body water or extracellular water. It has been repo ...

[3] = Stability of buserelin in pig plasma (autosampler, benchtop, freeze–thaw); format: in vitro ADME; conditions: for Stability, Accuracy Mean ± SD: pig plasma, UPLC-MS/MS
Experimental: as §1

[4] = Plasma pharmacokinetics of buserelin after i.m. administration in pigs; format: in vivo; conditions: for MRT: pig, 1 mg per pig
Experimental: (§2) The UPLC-MS/MS system (Waters Acquity UPLC and Waters Quattro Premier, Waters Co., USA) and the chromatographic column (Agilent Poroshell 120 EC-C18, 4.6 × 100 mm, 2.7 µm) were used in this study. The separation was performed with 0.1% formic acid in water (mobile phase solvent A) and 0.1% formic acid in acetonitrile (solvent B) with a flow rate of 0.6 mL/min. The gradient elution program was optimized as follow: 75% A (0–0.5 min), 10% A (5–7 min) 75% A (7.1–10 min). The sample was injected at a volume of 5 µL at 30℃. The mass spectrometer was operated in the positive ion detection mode with the capillary voltage set at 5.5 kV and the source temperature was 550 ℃. Others parameters were as follows: nebulizer gas pressure was 55 psi, ion source gas pressure was 60 psi, curtain gas pressure was 30 psi, declustering potential was 68 V, entrance potential was 10 V, and collision cell exit potential was 13 V.
(§3) Five healthy adult female Danish Landrance × Yorkshire × Duroc pigs (100–120 days, 50–60 kg, Ningbo Kuangdai Husbandry Co., Ltd. Ningbo China) and five healthy adult female Holstein cows (1.5–2 years, 440–500 kg, Ningbo Milk Group Co., Ltd. Ningbo China) were randomly selected to use in this research. All animals were examined by a local veterinarian with regard to physical, hematologic, and biochemical conditions during the two-week adaptation period. The two protocols used in this study were reviewed and approved by the Institutional Animal Care and Use Committee of China Agricultural University (pigs: 11605–20-D-007; cows: 11605–20-B-003). Buserelin injection solution (0.5 mg/mL, 10 mL) was acquired from Ningbo Sansheng Pharmaceutical Company. In order to avoid introducing bias results from feeding, each animal in the study fasted for approximately 12 h. Each pig received 1 mg buserelin injection solution (about 0.018 mg/kg), and each cow received 3 mg (about 0.0064 mg/kg). During the entire experiment, water was available ad libitum. Adverse symptoms were recorded and evaluated. Blood samples of 5 mL were collected into heparinized tube (pigs: anterior vena cava; cows: vena jugularis interna) at 0, 0.083, 0.167, 0.333, 0.5, 0.75, 1, 1.5, 2, 3, 4, 5, 6, 7, and 8 h after i.m. administration. The blood samples were centrifuged for 5 min at 2775 × g. Plasma samples were stored in -20 ℃ until analysis (within 21 days of collection).
(§4) Frozen plasma samples were thawed and vortexed, and 500 µL plasma and 1 mL 0.1% formic acid in acetonitrile were mixed together. After 10 min ultrasonic treatment, the samples were centrifuged for 10 min at 11,100 × g. The upper layer was collected and the remainder was treated twice. These two supernatants were added together, the samples were evaporated via nitrogen gas at 40 ℃, and redissolved in 2.5 mL 0.1% formic acid in acetonitrile-0.1% formic acid in water (1:3 v/v). After filtered through a 0.22 µm microbore cellulose membrane, the samples were collected and bottled to UPLC-MS/MS system for analysis.
(§5) Plasma concentrations of buserelin were analyzed using the established method, and the pharmacokinetic parameters were calculated via a non-compartmental analysis model 200 in WinNonlin software (WinNolin 8.1.0 Certara, Pharsight, Mountain View, CA, USA) and expressed in mean ± standard deviation (SD), and no statistical tests were applied.

[5] = Plasma pharmacokinetics of buserelin after i.m. administration in cows; format: in vivo; conditions: for MRT: cow, 3 mg per cow
Experimental: as §2, §3, §4, §5

[6] = female, Danish Landrance × Yorkshire × Duroc, im, single i.m. dose 1 mg per pig, plasma, mean ± SD, n = 5
[7] = single i.m. dose 1 mg per pig, plasma, mean ± SD, n = 5
[8] = female, Holstein, im, single i.m. dose 3 mg per cow, plasma, mean ± SD, n = 5
[9] = single i.m. dose 3 mg per cow, plasma, mean ± SD, n = 5

In the case of `CCNC(=O)[C@@H]1CCCN1C(=O)[C@H](CCCNC(=N)N)NC(=O)[C@H](CC(C)C)NC(=O)[C@@H](COC(C)(C)C)NC(=O)[C@H](Cc1ccc(O)cc1)NC(=O)[C@H](CO)NC(=O)[C@H](Cc1c[nH]c2ccccc12)NC(=O)[C@H](Cc1cnc[nH]1)NC(=O)[C@@H]1CCC(=O)N1` [buserelin, Buserelin], the “Stability, Accuracy Mean ± SD” value ([1]; autosampler, concentration 0.25 ng/mL) is reported as 0.24 ± 0.01, the “Stability, Accuracy Mean ± SD” value ([1]; autosampler, concentration 4 ng/mL) is reported as 3.90 ± 0.30 and the “Stability, Accuracy Mean ± SD” value ([1]; benchtop, concentration 0.25 ng/mL) is reported as 0.25 ± 0.02. For the same compound, the “Stability, Accuracy Mean ± SD” value ([1]; benchtop, concentration 4 ng/mL) was 3.87 ± 0.41, the “Stability, Accuracy Mean ± SD” value ([1]; freeze–thaw, concentration 0.25 ng/mL) was 0.26 ± 0.02 and the “Stability, Accuracy Mean ± SD” value ([1]; freeze–thaw, concentration 4 ng/mL) was 3.95 ± 0.34. For the same compound, the tmax ([2]; health volunteers, single dose 5 µg s.c. ref 3) was 0.7 h, the tmax ([2]; health volunteers, single dose 150 µg i.n. ref 3) was 0.967 h and the tmax ([2]; health volunteers, single dose 300 µg i.n. ref 3) was 0.73 h. For the same compound, the tmax ([2]; health volunteers, single dose 450 µg i.n. ref 3) was 0.647 h, the tmax ([2]; health volunteers, single dose 500 µg i.v. ref 3) was 0.333 h and the elimination half-time ([2]; human, regardless of the administration route ref 2, 3) was 72 to 120 min. For the same compound, the tmax ([2]; rats (anesthetized), single dose of 0.1 mg/kg i.n. ref 18) was 1.92 ± 0.42 h, the “rapid initial half time / t1/2” value ([2]; rats, i.v. ref 1) was 5 min and the t1/2 ([2]; rats, single dose of 6 mg/kg s.c. injection ref 13) was 0.7 h. For the same compound, the “Stability, Accuracy Mean ± SD” value ([3]; autosampler, concentration 0.5 ng/mL) was 0.51 ± 0.04, the “Stability, Accuracy Mean ± SD” value ([3]; autosampler, concentration 20 ng/mL) was 19.70 ± 2.32 and the “Stability, Accuracy Mean ± SD” value ([3]; benchtop, concentration 0.5 ng/mL) was 0.47 ± 0.02. The “Stability, Accuracy Mean ± SD” value ([3]; benchtop, concentration 20 ng/mL) was 19.72 ± 1.61, the “Stability, Accuracy Mean ± SD” value ([3]; freeze–thaw, concentration 0.5 ng/mL) was 0.51 ± 0.04 and the “Stability, Accuracy Mean ± SD” value ([3]; freeze–thaw, concentration 20 ng/mL) was 19.95 ± 1.12. For the same compound, the “Stability during autosampler, benchtop, freeze–thaw, and stock solution test” value ([3]; summary statement for pig plasma, cow plasma and stock solution (Table 3)) was “stable”, the tmax ([4]; female, Danish Landrance × Yorkshire × Duroc, im, single i.m. dose 1 mg per pig (about 0.018 mg/kg), plasma, UPLC-MS/MS, non-compartmental, mean ± SD, n = 5) was 0.57 ± 0.18 h and the AUC(0-t) ([4]; female, Danish Landrance × Yorkshire × Duroc, im, single i.m. dose 1 mg per pig, plasma, 0 to last measurement point, mean ± SD, n = 5) was 25 ± 6.93 ng·h/mL. For the same compound, the Cmax ([4]; female, Danish Landrance × Yorkshire × Duroc, im, single i.m. dose 1 mg per pig, plasma, UPLC-MS/MS, non-compartmental, mean ± SD, n = 5) was 11 ± 2.04 ng/mL, the AUC(0-inf) [4, 6] was 25.8 ± 6.75 ng·h/mL and the CL/F [4, 6] was 686 mL/min. It also gave a Vd/F [4, 6] of 80.5 ± 43.9 L, a half-life ([4]; female, Danish Landrance × Yorkshire × Duroc, im, single i.m. dose 1 mg per pig, plasma, non-compartmental, mean ± SD, n = 5, read-out: t1/2 (elimination half-time) (converted)) of 1.29 ± 0.4 h and an MRT ([4]; female, Danish Landrance × Yorkshire × Duroc, plasma, im, single i.m. dose 1 mg per pig, plasma, mean ± SD, n = 5, read-out: MRT0-t) of 2.13 ± 0.27 h. The MRT ([4]; female, Danish Landrance × Yorkshire × Duroc, plasma, im, single i.m. dose 1 mg per pig, plasma, mean ± SD, n = 5, read-out: MRT0-∞) was 2.35 ± 0.23 h, the Cmax/D ([4]; single i.m. dose 1 mg per pig (about 0.018 mg/kg), rate of Cmax to dosage, mean ± SD, n = 5) was 610.19 ± 79.93 ng/mL/mg/kg and the Adverse effects ([4]; single i.m. dose 1 mg per pig, n = 5) was “No adverse effects were observed”. The AUMClast [4, 7] was 59.59 ± 16.54 h × h × ng/mL, the “ka (absorption rate constant)” value [4, 7] was 0.48 ± 0.07 h⁻¹ and the MRT ([5]; female, Holstein, plasma, im, single i.m. dose 3 mg per cow, plasma, mean ± SD, n = 5, read-out: MRT0-t) was 1.85 ± 0.56 h. It also gave an MRT ([5]; female, Holstein, plasma, im, single i.m. dose 3 mg per cow, plasma, mean ± SD, n = 5, read-out: MRT0-∞) of 2.16 ± 0.7 h, a tmax ([5]; female, Holstein, im, single i.m. dose 3 mg per cow (about 0.0064 mg/kg), plasma, UPLC-MS/MS, non-compartmental, mean ± SD, n = 5) of 1.05 ± 0.27 h and an AUC(0-t) ([5]; female, Holstein, im, single i.m. dose 3 mg per cow, plasma, 0 to last measurement point, mean ± SD, n = 5) of 5.63 ± 1.86 ng·h/mL. For the same compound, the Cmax ([5]; female, Holstein, im, single i.m. dose 3 mg per cow, plasma, UPLC-MS/MS, non-compartmental, mean ± SD, n = 5) was 2.68 ± 0.36 ng/mL, the AUC(0-inf) [5, 8] was 5.99 ± 2.01 ng·h/mL and the CL/F [5, 8] was 9080 mL/min. For the same compound, the Vd/F [5, 8] was 840 ± 175 L, the half-life ([5]; female, Holstein, im, single i.m. dose 3 mg per cow, plasma, non-compartmental, mean ± SD, n = 5, read-out: t1/2 (elimination half-time) (converted)) was 1.13 ± 0.3 h and the Cmax/D ([5]; single i.m. dose 3 mg per cow (about 0.0064 mg/kg), rate of Cmax to dosage, mean ± SD, n = 5) was 420.35 ± 58.40 ng/mL/mg/kg. For the same compound, the Adverse effects ([5]; single i.m. dose 3 mg per cow, n = 5) was “No adverse effects were observed”, the AUMClast [5, 9] was 11.23 ± 6.89 h × h × ng/mL and the “ka (absorption rate constant)” value [5, 9] was 0.58 ± 0.17 h⁻¹.
